Data taken from US5162336A, “Tetrahydro-pyrido-indoles as cholecystokinin and gastrin antagonists” (Rhone-Poulenc Rorer Pharmaceuticals Inc., priority 1990, dated 1992).

Molecular target: T1, Gastrin receptor (Cavia porcellus, UniProt H0VZC5)
T1 construct: The fundic mucosa is gently scraped off the submucosa; from tissue; host or cells: gastric glands from fundic mucosa of Hartley guinea pig
T1 sequence (H0VZC5 1-426): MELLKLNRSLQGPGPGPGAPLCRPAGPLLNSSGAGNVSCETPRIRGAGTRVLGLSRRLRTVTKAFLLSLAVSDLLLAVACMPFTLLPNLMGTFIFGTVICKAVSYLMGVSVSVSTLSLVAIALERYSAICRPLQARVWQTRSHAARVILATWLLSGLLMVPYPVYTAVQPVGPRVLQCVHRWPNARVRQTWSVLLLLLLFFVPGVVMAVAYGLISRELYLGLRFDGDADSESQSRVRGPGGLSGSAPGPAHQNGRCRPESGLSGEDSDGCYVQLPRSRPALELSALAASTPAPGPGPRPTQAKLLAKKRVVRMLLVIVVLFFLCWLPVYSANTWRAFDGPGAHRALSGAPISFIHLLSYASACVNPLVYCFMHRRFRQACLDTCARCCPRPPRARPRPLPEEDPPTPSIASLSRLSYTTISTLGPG
Experiment: Gastrin receptor binding assay (displacement of 125I-(Leu-15)-Gastrin from guinea pig fundic glands)
Design: species or system guinea pig (Hartley Strain)
Conditions: guinea pig fundic mucosa glands, 25° C., 30 min, read-out: In vitro Binding Data IC50 Gastrin
Method: (a) Phosphate Buffered Saline (PBS): 8.743 g NaCl, 523 mg K2 HPO4 and 76.8 mg NaH2 PO4 is dissolved in 1.0 liter of deionized water and the pH of the solution is adjusted to 7.3 with 5N NaOH.
(b) Buffer A: While adding Basal Medium Eagle (BME) containing Earle's Salts, L-glutamine and 25 mM HEPES, 3 liters of deionized water is stirred, followed by the addition and dissolution of […] of sodium bicarbonate. The solution is then equilibrated with 95% O2 /5% CO2 gas followed by titration to a pH of 7.4 with NaOH.
(c) Buffer B: 18.75 mg of collagenase and […] of BSA is dissolved in 25 ml of Buffer A.
(d) Buffer C: 0.3 g of BSA is dissolved in 300 ml of Buffer A.
(e) 6.25 mg Bacitracin is dissolved in 25 ml of Buffer A.
(f) ^125 I-(Leu-15)-Gastrin: 100 microcurie dissolved in 2.0 ml of Buffer A to make 50 microcurie/ml.
(g) ^125 I-(15-methionine)-Human Gastrin: 50 microcurie/ml.
(h) (Leu 15)-Gastrin: 5.2 mg of (Leu-15)- Gastrin is dissolved in 10 ml of Buffer A. At the time of assay 1:10 dilution is made and 10 μl assay tube is used.
A guinea pig (Hartley Strain) weighing 150-200 grams, is sacrificed by CO2 asphyxiation and the stomach immediately excised, cut along the greater curvature, cleaned out and immediately immersed in a beaker containing cold PBS, pH 7.3, to insure thorough cleaning. The fundic mucosa is gently scraped off the submucosa and added to a preweighed 50 ml plastic centrifuge tube containing 30 ml of cold Buffer A. The weight of the plastic centrifuge tube containing the buffer is then subtracted from the combined weight of the mucosa and the buffer-containing tube to give the weight of the mucosa. The weight of the mucosa thus determined is recorded for later calculations.
The mucosa is then washed twice in Buffer A. After the final wash, the tissue is minced and is placed in a 100-ml glass beaker containing about 1.0 ml of Buffer A, and washed twice again by repeated centrifugation at 50×g for 5 minutes each and aspiration of supernatant. The washed tissue fragments are then added to a glass Erlenmeyer flask containing 25 ml of Buffer B and incubated in a Dubnoff shaking water bath at 37° C. for 30 minutes in a 95% O2 - 5% CO2 atmosphere. After the incubation, the digested tissue fragments in the Collegenase-buffer solution are triturated, filtered through a 200-micron nylon mesh and centrifuged at 50×g for 5 minutes. The supernatant is aspirated and discarded, the tissue washed 2× in Buffer C, resuspended in same buffer, incubated in a 37° C. water bath in an atmosphere of 95% O2 - 5% CO2 for 5 minutes, and centrifuged. The pelleted glands are suspended in Buffer D at a desired concentration of 2x10^5 glands/ml to use in the receptor binding assay.
Six minisorp tubes (16×100 mm) are serially marked and divided into two groups thus: tubes #1, #2, and #3 are marked "T" for "Totals" and tubes #4, #5, and #6 are marked "NS" for "Non-Specifics." Into each of the six tubes are added 220 μl of prepared glands in Buffer D; 20 μl of Buffer A in tubes #1, #2, and #3; 10 μl, in tubes #4, #5 and #6; (10μ of (Leu-15)-Gastrin (25 μM) in tubes #4, #5, and #6. The six tubes are then transferred immediately to a 25° C. water bath and challenged each with 10 μl ^125 I-(Leu-15)-Gastrin diluted as per calculation. The tubes are then covered with a gas hood connected to a 95% O2 - 5% CO2 gas source and mechanically agitated in a shaker for 30 minutes.
At the end of the incubation period, the assay mixtures are each filtered through a Whatman glass fiber filter B on a Brandel tissue harvester and washed twice with Buffer A. The filters are pre-soaked in Buffer C before use. The filter strips are removed after the final wash and individual filters counted in a Gamma Counter. The counts from the "Non-Specific" tubes are then averaged and subtracted from the average "Totals" to give the Specific Counts. […]

SMILES | IC50 [µM]
CC(C)C[C@H](NC(=O)[C@@H]1Cc2c([nH]c3ccccc23)CN1)C(=O)N[C@@H](CC(=O)O)C(N)=O [Example 2, N-[(3S)-1,2,3,4-tetrahydro-9H-pyrido[3,4-b]indole-3-carboxyl]-L-leucyl-L-aspartic acid amide] | 60
NC(=O)[C@H](CC(=O)O)NC(=O)[C@H]1Cc2c([nH]c3ccccc23)CN1 [Example 3, N-[(3R)-1,2,3,4-tetrahydro-9H-pyrido[3,4-b]-indole-3-carboxyl]-L-aspartic acid amide] | > 300
NC(=O)[C@H](CC(=O)O)NC(=O)[C@@H]1Cc2c([nH]c3ccccc23)CN1 [Example 4, N-[(3S)-1,2,3,4-tetrahydro-9H-pyrido[3,4-b]indole-3-carboxyl]-L-aspartic amide] | > 300
O=C(NCC(c1ccccc1)c1ccccc1)[C@H]1Cc2c([nH]c3ccccc23)CN1 [Example 5, (3R)-3-(2,2'-diphenyl)ethylcarbamoyl-1,2,3,4-tetrahydro-9H-pyrido[3,4-b]indole] | 59
O=C(NC(c1ccccc1)c1ccccc1)[C@H]1Cc2c([nH]c3ccccc23)CN1 [Example 6, (3R)-3-diphenylmethylcarbamoyl-1,2,3,4-tetrahydro-9H-pyrido[3,4-b]indole] | 60
NC(=O)[C@H](CC(=O)O)NC(=O)[C@H]1Cc2c([nH]c3ccccc23)CN1C(=O)c1ccccc1 [Example 8, N-[(3R)-2-benzoyl-1,2,3,4-tetrahydro-9H-pyrido[3,4-b]indole-3-carboxyl]-L-aspartic acid amide] | 78
CC(C)C[C@H](NC(=O)[C@H]1Cc2c([nH]c3ccccc23)CN1C(=O)c1ccccc1)C(=O)N[C@@H](CC(=O)O)C(N)=O [Example 9, N-[(3R)-2-benzoyl-1,2,3,4-tetrahydro-9H-pyrido[3,4-b]indole-3-carboxyl]-L-leucyl-L-aspartic acid amide] | 25
CC(C)C[C@H](NC(=O)[C@H]1Cc2c([nH]c3ccccc23)CN1C(=O)c1ccc2ccccc2c1)C(=O)N[C@@H](CC(=O)O)C(N)=O [Example 10, N-[(3R)-2-(2-naphthoyl)-1,2,3,4-tetrahydro-9H-pyrido[3,4-b]indole-3-carboxyl]-L-leucyl-L-aspartic acid amide] | 15
Cc1cccc(NC(=O)N2Cc3[nH]c4ccccc4c3C[C@H]2C(=O)N[C@@H](CC(C)C)C(=O)N[C@@H](CC(=O)O)C(N)=O)c1 [Example 12, N-[(3S)-2-(3-methylphenylcarbamoyl)-1,2,3,4-tetrahydro-9H-pyrido[3,4-b]indole-3-carboxyl]-L-leucyl-L-aspartic acid amide] | 29
CCCCCN(CCCCC)C(=O)[C@H]1Cc2c([nH]c3ccccc23)CN1C(=O)Nc1cccc(C)c1 [Example 13, (3R)-3-(N,N-dipentylcarbamoyl)-2-(3-methylphenylcarbamoyl)-1,2,3,4-tetrahydro-9H-pyrido[3,4-b]indole] | > 300
CCOC(=O)c1cccc(NC(=O)[C@H]2Cc3c([nH]c4ccccc34)CN2C(=O)OCc2ccccc2)c1 [Example 16, ethyl 3-N-[(3R)-2-carbobenzoxy-1,2,3,4-tetrahydro-9H-pyrido[3,4-b]indole-3-carboxyl]aminobenzoate] | > 300
CCOC(=O)c1ccccc1NC(=O)[C@H]1Cc2c([nH]c3ccccc23)CN1C(=O)OCc1ccccc1 [Example 17] | 100
O=C(Nc1ccccc1C(=O)N1CCCC1)[C@H]1Cc2c([nH]c3ccccc23)CN1C(=O)OCc1ccccc1 [Example 18, pyrrolidine-2-N-[(3R)-2-carbobenzoxy-1,2,3,4-tetrahydro-9H-pyrido-[3,4-b]indole-3-carboxyl]aminobenzamide] | 55
O=C(Nc1ccccc1C(=O)N1CCCC1)[C@H]1Cc2c([nH]c3ccccc23)CN1C(=O)c1ccc2ccccc2c1 [Example 20, pyrrolidine-2-N-[(3R)-2-(2-naphthoyl)-1,2,3,4-tetrahydro-9H-pyrido[3,4-b]indole-3-carboxyl]aminobenzamide] | 80
CCCCN(CCCC)C(=O)c1ccccc1NC(=O)[C@H]1Cc2c([nH]c3ccccc23)CN1C(=O)OCc1ccccc1 [Example 22] | > 300
CCOC(=O)c1ccccc1NC(=O)[C@@H]1Cc2c([nH]c3ccccc23)CN1C(=O)OCc1ccccc1 [Example 23, ethyl 2-N-[(3S)-2-carbobenzoxy-1,2,3,4-tetrahydro-9H-pyrido[3,4-b]indole-3-carboxyl]aminobenzoate] | > 300

Now those with a lower IC50, led by results:

IC50 [µM] | SMILES
12 | CC(C)C[C@H](NC(=O)[C@H]1Cc2c([nH]c3ccccc23)CN1)C(=O)N[C@@H](CC(=O)O)C(N)=O [Example 1, N-[(3R)-1,2,3,4-tetrahydro-9H-pyrido[3,4-b]indole-3-carboxyl]-L-leucyl-L-aspartic acid amide]
10 | CCOC(=O)c1ccc(NC(=O)[C@H]2Cc3c([nH]c4ccccc34)CN2C(=O)OCc2ccccc2)cc1 [Example 15, ethyl 4-N-[(3R)-2-carbobenzoxy-1,2,3,4-tetrahydro-9H-pyrido[3,4-b]indole-3-carboxyl]aminobenzoate]
8 | O=C(Nc1ccccc1C(=O)N1CCCC1)[C@@H]1Cc2c([nH]c3ccccc23)CN1C(=O)OCc1ccccc1 [Example 19, pyrrolidine-2-N-[(3S)-2-carbobenzoxy-1,2,3,4-tetrahydro-9H-pyrido[3,4-b]indole-3-carboxyl]aminobenzamide]
5.5 | CC(C)C[C@H](NC(=O)[C@H]1Cc2c([nH]c3ccccc23)CN1C(=O)Nc1ccccc1)C(=O)N[C@@H](CC(=O)O)C(N)=O [Example 14, N-[(3R)-2-phenylcarbamoyl-1,2,3,4-tetrahydro-9H-pyrido[3,4-b]indole-3-carboxyl]-L-leucyl-L-aspartic acid amide]
4 | Cc1cccc(NC(=O)N2Cc3[nH]c4ccccc4c3C[C@@H]2C(=O)N[C@@H](CC(C)C)C(=O)N[C@@H](CC(=O)O)C(N)=O)c1 [Example 11, N-[(3R)-2-(3-methylphenylcarbamoyl)-1,2,3,4-tetrahydro-9H-pyrido[3,4-b]indole-3-carboxyl]-L-leucyl-L-aspartic acid amide]
1.3 | NC(=O)[C@H](CC(=O)O)NC(=O)C1(NC(=O)[C@H]2Cc3c([nH]c4ccccc34)CN2C(=O)Nc2ccc(Cl)c(Cl)c2)CCCC1 [Example 26]
0.77 | CC[C@H](C)[C@H](NC(=O)[C@H]1Cc2c([nH]c3ccccc23)CN1C(=O)Nc1ccc(Cl)c(Cl)c1)C(=O)N[C@@H](CC(=O)O)C(N)=O [Example 24, N-[(3R)-2-(3,4-dichlorophenylcarbamoyl)-1,2,3,4-tetrahydro-9H-pyrido[3,4-b]indol-3-yl]carbonyl-L-isoleucyl-L-aspartic acid amide]
0.41 | CC(C)C[C@H](NC(=O)[C@H]1Cc2c([nH]c3ccccc23)CN1C(=O)Nc1ccc(Cl)c(Cl)c1)C(=O)NCCC(=O)O [Example 27]
